Assay results published in patent US9072758B2, “Cyclic amide derivative” (MOCHIDA PHARMACEUTICAL CO., LTD., priority 2011, dated 2015).

Biological target: T1, GPR40 of human origin (Homo sapiens, UniProt O14842)
T1 construct: expressed in transfected cells
Experiment: Agonist action on GPR40 of human origin (Ca2+ fluctuation in a CHO cell strain stably expressing GPR40)
Assay type: cell-based
Conditions: Calcium 4 Assay Kit, fluorescence intensity variation
Protocol: A CHO cell strain stably expressing GPR40 of human origin was used to determine the agonist action of a title compound. This cell strain was seeded in a clear bottom 96 well plate at 2×10^4 cells/100 μL/well. The cell strain was cultured in a CO2 incubator overnight using a Ham's F-12 medium containing a 10% fetal bovine serum, 100 U/mL penicillin, 0.1 mg/mL streptomycin, and 400 μg/mL Geneticin. Calcium 4 Assay Kit (Molecular Devices) was used as a fluorescent calcium indicator. One mL of 77 mg/mL probenecid (Invitrogen) was added to 100 mL of a calcium indicator solution to prepare a solution (loading solution) mixed with a 20 mM HEPES-containing Hanks' balanced salt solution (HBSS) in equal proportions. To the cells from which the culture solution was removed, 200 μL of the loading solution was added, and the cells were cultured in a CO2 incubator for 1 hour. The title compound was diluted with a 20 mM HEPES-containing HBSS and was added to the cells by 50 μL, and the fluctuation of the Ca^2+ concentration was measured by an intracellular ion analyzer. The EC50 value of the title compound was calculated using the dose-response curve of fluorescence intensity variation.

T1 sequence (O14842 whole entry): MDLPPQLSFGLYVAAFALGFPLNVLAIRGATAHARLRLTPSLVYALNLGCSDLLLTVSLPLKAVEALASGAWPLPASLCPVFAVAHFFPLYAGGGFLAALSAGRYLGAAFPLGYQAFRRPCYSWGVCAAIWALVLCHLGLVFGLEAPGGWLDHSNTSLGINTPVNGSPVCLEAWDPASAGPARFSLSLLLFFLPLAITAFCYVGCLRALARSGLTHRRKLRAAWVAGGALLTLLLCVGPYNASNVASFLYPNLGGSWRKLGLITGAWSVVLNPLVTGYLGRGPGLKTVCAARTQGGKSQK

SMILES | EC50 [µM]
Cc1cccc(C)c1-c1cccc2c1CC[C@H]2Oc1ccc(C2CC(=O)NS(=O)(=O)C2)cc1 (stereo partly drawn) [Example 37, 5-(4-(((R)-4-(2,6-dimethylphenyl)-2,3-dihydro-1H-inden-1-yl)oxy)phenyl)-1,2-thiazinan-3-one 1,1-dioxide] | < 0.3
Cc1ccccc1-c1cccc2c1CC[C@H]2Oc1ccc(C2CC(O)=N[S+]2[O-])cc1 (single isomer, unassigned) [Example 66] | < 0.3
Cc1cccc(Oc2cccc3c2CC[C@H]3Oc2ccc(C3CC(O)=N[S+]3[O-])cc2)c1 (single isomer, unassigned) [53(A)-a] | < 0.3
COc1ccc(Oc2cccc3c2CC[C@H]3Oc2ccc(C3CC(O)=N[S+]3[O-])cc2)cn1 (single isomer, unassigned) [52(A)-b] | < 0.3
Cc1ccc(F)cc1-c1cccc2c1CC[C@H]2Oc1ccc(C2CC(O)=N[S+]2[O-])cc1 (single isomer, unassigned) [Example 67] | < 0.3
COc1cccc(F)c1-c1cccc2c1CC[C@H]2Oc1ccc(C2CC(O)=N[S+]2[O-])cc1 (single isomer, unassigned) [Example 68] | < 0.3
COc1cc(C)c(-c2cccc3c2CC[C@H]3Oc2ccc(C3CC(=O)NS(=O)(=O)C3)cc2)c(C)c1 (stereo partly drawn) [Example 46, 5-(4-(((R)-4-(4-methoxy-2,6-dimethylphenyl)-2,3-dihydro-1H-inden-1-yl)oxy)phenyl)-1,2-thiazinan-3-one 1,1-dioxide] | < 0.3
Cc1nc(OCCCS(C)(=O)=O)ccc1-c1cccc2c1CC[C@H]2Oc1ccc(C2CC(O)=N[S+]2[O-])cc1 (single isomer, unassigned) [Example 62] | < 0.3
Cc1cccc(Oc2cccc3c2CC[C@H]3Oc2ccc(C3CC(O)=N[S+]3[O-])cc2)c1 (single isomer, unassigned) [53(A)-b] | < 0.3
O=C1CC(c2ccc(O[C@@H]3CCc4c(-c5ccccc5C(F)(F)F)cccc43)cc2)CS(=O)(=O)N1 (stereo partly drawn) [Example 38, 5-(4-(((R)-4-(2-(trifluoromethyl)phenyl)-2,3-dihydro-1H-inden-1-yl)oxy)phenyl)-1,2-thiazinan-3-one 1,1-dioxide] | < 0.3
N#Cc1ccc(Oc2cccc3c2CC[C@H]3Oc2ccc(C3CC(=O)N[S+]3[O-])cc2)cc1 (single isomer, unassigned) [25(A)-b] | < 0.3
CCOCCOc1cc(C)c(-c2cccc3c2CC[C@H]3Oc2ccc(C3CC(=O)NS(=O)(=O)C3)cc2)c(C)c1 (stereo partly drawn) [Example 42, 5-(4-(((R)-4-(4-(2-ethoxyethoxy)-2,6-dimethylphenyl)-2,3-dihydro-1H-inden-1-yl)oxy)phenyl)-1,2-thiazinan-3-one 1,1-dioxide] | < 0.3
Cc1cc(OCCCS(C)(=O)=O)cc(C)c1-c1cccc2c1CC[C@H]2Oc1ccc(C2CC(=O)NS(=O)(=O)C2)cc1 (stereo partly drawn) [Example 45, 5-(4-(((R)-4-(2,6-dimethyl-4-(3-(methylsulfonyl)propoxy)phenyl)-2,3-dihydro-1H-inden-1-yl)oxy)phenyl)-1,2-thiazinan-3-one 1,1-dioxide] | < 0.3
CCOCCOc1cc(C)c(-c2cccc3c2CC[C@H]3Oc2ccc(C3CC(=O)NS(=O)(=O)C3)cc2)c(C)c1 (stereo partly drawn) [Example 39, 5-(4-(((R)-4-(4-(2-ethoxyethoxy)-2,6-dimethylphenyl)-2,3-dihydro-1H-inden-1-yl)oxy)phenyl)-1,2-thiazinan-3-one 1,1-dioxide] | < 0.3
Cc1nc(OCCC(C)(C)O)ccc1-c1cccc2c1CC[C@H]2Oc1ccc(C2CC(=O)N[S+]2[O-])cc1 (single isomer, unassigned) [23(A)-a] | < 0.3
O=C1CC(c2ccc(O[C@@H]3CCc4c(Oc5ccccc5)cccc43)cc2)CS(=O)(=O)N1 (stereo partly drawn) [Example 48, 5-(4-(((R)-4-phenoxy-2,3-dihydro-1H-inden-1-yl)oxy)phenyl)-1,2-thiazinan-3-one 1,1-dioxide] | < 0.3
CCOCCOc1cc(C)c(-c2cccc3c2CC[C@H]3Oc2ccc(C3CC(O)=N[S+]3[O-])cc2)c(C)c1 (single isomer, unassigned) [Example 57] | < 0.3
[O-][S+]1N=C(O)CC1c1ccc(O[C@@H]2CCc3c(-c4cccnc4C(F)(F)F)cccc32)cc1 (single isomer, unassigned) [Example 65] | < 0.3
Cc1nc(OCCC(C)(C)O)ccc1Oc1cccc2c1CC[C@H]2Oc1ccc(C2CC(O)=N[S+]2[O-])cc1 (single isomer, unassigned) [51(A)-a] | < 0.3

SMILES | EC50 [µM]
Cc1cc(OCCCS(C)(=O)=O)cc(C)c1-c1cccc2c1CC[C@H]2Oc1ccc(C2CC(=O)N[S+]2[O-])cc1 (single isomer, unassigned) [Example 59] | < 0.3
[O-][S+]1N=C(O)CC1c1ccc(O[C@@H]2CCc3c(-c4ccccc4C(F)(F)F)cccc32)cc1 (single isomer, unassigned) [Example 64] | < 0.3
Cc1nc(OCCC(C)(C)O)ccc1Oc1cccc2c1CC[C@H]2Oc1ccc(C2CC(O)=N[S+]2[O-])cc1 (single isomer, unassigned) [51(A)-b] | < 0.3
O=C1CC(c2ccc(O[C@@H]3CCc4c(-c5ccccc5C(F)(F)F)cccc43)cc2)CS(=O)(=O)N1 (stereo partly drawn) [Example 44, 5-(4-(((R)-4-(2-(trifluoromethyl)phenyl)-2,3-dihydro-1H-inden-1-yl)oxy)phenyl)-1,2-thiazinan-3-one 1,1-dioxide] | < 0.3
Cc1ncccc1Oc1cccc2c1CC[C@H]2Oc1ccc(C2CC(O)=N[S+]2[O-])cc1 (single isomer, unassigned) [55(A)-b] | < 0.3
COc1ccc(-c2cccc3c2CC[C@H]3Oc2ccc(C3CC(O)=N[S+]3[O-])cc2)c(C)n1 (single isomer, unassigned) [Example 63] | < 0.3
CCOc1ccc(F)cc1-c1cccc2c1CC[C@H]2Oc1ccc(C2CC(O)=N[S+]2[O-])cc1 (single isomer, unassigned) [Example 69] | < 0.3
O=C1CC(c2ccc(O[C@@H]3CCc4c(Oc5ccccc5)cccc43)cc2)CS(=O)(=O)N1 (stereo partly drawn) [Example 49, 5-(4-(((R)-4-phenoxy-2,3-dihydro-1H-inden-1-yl)oxy)phenyl)-1,2-thiazinan-3-one 1,1-dioxide (C)] | < 0.3
CCOCCOc1ccc(-c2cccc3c2CC[C@H]3Oc2ccc(C3CC(O)=N[S+]3[O-])cc2)c(C)n1 (single isomer, unassigned) [54(A)-b] | < 0.3
COc1cc(C)c(-c2cccc3c2CC[C@H]3Oc2ccc(C3CC(O)=N[S+]3[O-])cc2)c(C)c1 (single isomer, unassigned) [Example 61] | < 0.3
Cc1ncccc1Oc1cccc2c1CC[C@H]2Oc1ccc(C2CC(O)=N[S+]2[O-])cc1 (single isomer, unassigned) [55(A)-a] | < 0.3
CCOCCOc1ccc(-c2cccc3c2CC[C@H]3Oc2ccc(C3CC(O)=N[S+]3[O-])cc2)c(C)n1 (single isomer, unassigned) [54(A)-a] | < 0.3
COc1ccc(Oc2cccc3c2CC[C@H]3Oc2ccc(C3CC(O)=N[S+]3[O-])cc2)cn1 (single isomer, unassigned) [52(A)-a] | < 0.3
CCOCCOc1cc(C)c(-c2cccc3c2CC[C@H]3Oc2ccc(C3CC(O)=N[S+]3[O-])cc2)c(C)c1 (single isomer, unassigned) [Example 58] | < 0.3
Cc1cccc(C)c1-c1cccc2c1CC[C@H]2Oc1ccc(C2CC(=O)NS(=O)(=O)C2)cc1 (stereo partly drawn) [Example 43, 5-(4-(((R)-4-(2,6-dimethylphenyl)-2,3-dihydro-1H-inden-1-yl)oxy)phenyl)-1,2-thiazinan-3-one 1,1-dioxide] | < 0.3
Cc1nc(OCCC(C)(C)O)ccc1-c1cccc2c1CC[C@H]2Oc1ccc(C2CC(=O)NS(=O)(=O)C2)cc1 (stereo partly drawn) [Example 36, 5-(4-(((R)-4-(6-(3-hydroxy-3-methylbutoxy)-2-methylpyridin-3-yl)-2,3-dihydro-1H-inden-1-yl)oxy)phenyl)-1,2-thiazinan-3-one 1,1-dioxide] | < 0.3
Cc1cc(O[C@@H]2CCc3c(-c4c(C)cc(OCCC(C)(C)O)cc4C)cccc32)ccc1C1CC(=O)NS(=O)(=O)C1 (stereo partly drawn) [Example 47, 5-(4-(((R)-4-(4-(3-hydroxy-3-methylbutoxy)-2,6-dimethylphenyl)-2,3-dihydro-1H-inden-1-yl)oxy)-2-methylphenyl)-1,2-thiazinan-3-one 1,1-dioxide] | < 0.3
Cc1cccc(C)c1-c1cccc2c1CC[C@H]2Oc1ccc(C2CC(O)=N[S+]2[O-])cc1 (single isomer, unassigned) [Example 60] | < 0.3
